Consider 31 compounds from US7312245B2 (priority 2001, dated 2007).

What all share (format): in vivo
The test system of test [1] is Pyricularia oryzae. The following applies: nursery box treated with granules 50 g per box; rice Koshihikari; inoculated 30 days after transplantation; lesions counted after 1 week.
Test [2] has as its system Pyricularia oryzae. The following applies: granules applied to water surface at 3 kg/10 ares; rice Koshihikari; inoculated 30 days after application; lesions checked after 1 week.
Test [3] deals with Pyricularia oryzae. The following applies: spray application of wettable powder diluted to 500 ppm; rice Koshihikari 2-leaf stage; spray-inoculated with Pyricularia oryzae spores; examined after 7 days.

Read-outs that look alike come from different tables or passages of the source.

For the compound `CC(C)C(CNC(=O)c1ccccc1)NC(=O)Oc1ccccc1` (stereo not drawn) [compound 526], the “Grade of Effect (preventive value, rice blast controlling effect)” value (“Grade of Effect” below) with Pyricularia oryzae [1] is “A (From 80% to 100%)”; in the test with Pyricularia oryzae [2] it was “A (From 80% to 100%)”; in the test with Pyricularia oryzae [3], “A (100%)”.

As to `Cc1ccc(C(=O)NCC(NC(=O)Oc2ccccc2)C(C)C)cc1` (stereo not drawn) [compound 530], the “Grade of Effect” value in the test on Pyricularia oryzae [1] was “A (From 80% to 100%)”; with Pyricularia oryzae [2], “A (From 80% to 100%)”; in the test with Pyricularia oryzae [3], “A (100%)”.

For the compound `CC(C)C(CNC(=O)c1ccccc1)NC(=O)OCc1ccccc1` (stereo not drawn) [compound 596], the results for the “Grade of Effect” value in the test on Pyricularia oryzae [1], with Pyricularia oryzae [2] and in the test with Pyricularia oryzae [3] were “A (From 80% to 100%)”, “A (From 80% to 100%)” and “A (100%)”, respectively.

With `Cc1ccc(C(=O)NCC(NC(=O)OCc2ccccc2)C(C)C)cc1` (stereo not drawn) [compound 600], the “Grade of Effect” value is “A (From 80% to 100%)” in the test on Pyricularia oryzae [1], “A (From 80% to 100%)” in the test with Pyricularia oryzae [2] and “A (100%)” in the test on Pyricularia oryzae [3].

With `O=C(NC(CNC(=O)c1ccccc1)c1ccccc1)OCc1ccccc1` (stereo not drawn) [compound 636, N-(benzyloxycarbonyl)-N′-benzoyl-1-phenyl-1,2-ethylenediamine], the results for the “Grade of Effect” value in the test on Pyricularia oryzae [1], in the test on Pyricularia oryzae [2] and with Pyricularia oryzae [3] were “A (From 80% to 100%)”, “A (From 80% to 100%)” and “A (100%)”, respectively.

In the case of `C=CCOC(=O)NC(CNC(=O)c1ccc(Cl)cc1)C(C)C` (stereo not drawn) [compound 739], the “Grade of Effect” value is “A (From 80% to 100%)” in the test on Pyricularia oryzae [1], “A (From 80% to 100%)” in the test with Pyricularia oryzae [2] and “A (100%)” in the test with Pyricularia oryzae [3].

With `C=CCOC(=O)NC(CNC(=O)c1ccc(C)cc1)C(C)C` (stereo not drawn) [compound 742], the “Grade of Effect” value in the test with Pyricularia oryzae [1] is listed as “A (From 80% to 100%)”; in the test with Pyricularia oryzae [2] it was “A (From 80% to 100%)”; in the test on Pyricularia oryzae [3], “A (100%)”.

Turning to `C#CCOC(=O)NC(CNC(=O)c1ccc(Cl)cc1)C(C)C` (stereo not drawn) [compound 804], the “Grade of Effect” value was “A (From 80% to 100%)” with Pyricularia oryzae [1], “A (From 80% to 100%)” in the test on Pyricularia oryzae [2] and “A (100%)” with Pyricularia oryzae [3].

On to `C#CCOC(=O)NC(CNC(=O)c1ccc(C)cc1)C(C)C` (stereo not drawn) [compound 807], for which the “Grade of Effect” value was “A (From 80% to 100%)” with Pyricularia oryzae [1], “A (From 80% to 100%)” in the test on Pyricularia oryzae [2] and “A (100%)” in the test on Pyricularia oryzae [3].

As to `Cc1ccc(COC(=O)NC(CNC(=O)c2ccc(Cl)cc2)C(C)C)cc1` (stereo not drawn) [compound 1049], the results for the “Grade of Effect” value in the test on Pyricularia oryzae [1], in the test on Pyricularia oryzae [2] and in the test on Pyricularia oryzae [3] were “A (From 80% to 100%)”, “A (From 80% to 100%)” and “A (100%)”, respectively.

As for `Cc1ccc(COC(=O)NC(CNC(=O)c2ccc(C)cc2)C(C)C)cc1` (stereo not drawn) [compound 1050], the results for the “Grade of Effect” value with Pyricularia oryzae [1], with Pyricularia oryzae [2] and in the test on Pyricularia oryzae [3] were “A (From 80% to 100%)”, “A (From 80% to 100%)” and “A (100%)”, respectively.

Turning to `CC(C)C(CNC(=O)c1ccc(Cl)cc1)NC(=O)OCc1ccc(Cl)cc1` (stereo not drawn) [compound 1063], the “Grade of Effect” value with Pyricularia oryzae [1] is “A (From 80% to 100%)”; in the test on Pyricularia oryzae [2], “A (From 80% to 100%)”; in the test with Pyricularia oryzae [3], “A (100%)”.

With `Cc1ccc(C(=O)NCC(NC(=O)OCc2ccc(Cl)cc2)C(C)C)cc1` (stereo not drawn) [compound 1066], the “Grade of Effect” value with Pyricularia oryzae [1] is recorded as “A (From 80% to 100%)”; in the test on Pyricularia oryzae [2], “A (From 80% to 100%)”; in the test with Pyricularia oryzae [3], “A (100%)”.

As to `CC(OC(=O)NC(CNC(=O)c1ccc(Cl)cc1)C(C)C)c1ccccc1` (stereo not drawn) [compound 1078], the entries for the “Grade of Effect” value in the test with Pyricularia oryzae [1], in the test on Pyricularia oryzae [2] and with Pyricularia oryzae [3] were “A (From 80% to 100%)”, “A (From 80% to 100%)” and “A (100%)”, respectively.

With `Cc1ccc(C(=O)NCC(C)(NC(=O)OC(C)c2ccccc2)C(C)C)cc1` (stereo not drawn) [compound 1081], the results for the “Grade of Effect” value in the test on Pyricularia oryzae [1], in the test with Pyricularia oryzae [2] and in the test on Pyricularia oryzae [3] were “A (From 80% to 100%)”, “A (From 80% to 100%)” and “A (100%)”, respectively.

For `CC(C)C(CNC(=O)c1ccc(Cl)cc1)NC(=O)OCc1ccco1` (stereo not drawn) [compound 1123], the “Grade of Effect” value is recorded as “A (From 80% to 100%)” in the test with Pyricularia oryzae [1], “A (From 80% to 100%)” in the test with Pyricularia oryzae [2] and “A (100%)” in the test with Pyricularia oryzae [3].

Turning to `Cc1ccc(C(=O)NCC(NC(=O)OCc2ccco2)C(C)C)cc1` (stereo not drawn) [compound 1126], the “Grade of Effect” value in the test with Pyricularia oryzae [1] was “A (From 80% to 100%)”; in the test with Pyricularia oryzae [2], “A (From 80% to 100%)”; with Pyricularia oryzae [3], “A (100%)”.

`CC(C)C(CNC(=O)c1ccc(Cl)cc1)NC(=O)OCc1ccoc1` (stereo not drawn) [compound 1138]: the “Grade of Effect” value in the test with Pyricularia oryzae [1] is “A (From 80% to 100%)”; with Pyricularia oryzae [2], “A (From 80% to 100%)”; with Pyricularia oryzae [3] it was “A (100%)”.

Turning to `Cc1ccc(C(=O)NCC(NC(=O)OCc2ccoc2)C(C)C)cc1` (stereo not drawn) [compound 1141], the “Grade of Effect” value in the test on Pyricularia oryzae [1] is recorded as “A (From 80% to 100%)”; in the test on Pyricularia oryzae [2], “A (From 80% to 100%)”; in the test on Pyricularia oryzae [3], “A (100%)”.

On to `CC(C)C(CNC(=O)c1ccc(Cl)cc1)NC(=O)OCC1CCCO1` (stereo not drawn) [compound 1153], for which the figures for the “Grade of Effect” value in the test on Pyricularia oryzae [1], with Pyricularia oryzae [2] and in the test on Pyricularia oryzae [3] were “A (From 80% to 100%)”, “A (From 80% to 100%)” and “A (100%)”, respectively.

Turning to `Cc1ccc(C(=O)NCC(NC(=O)OCC2CCCO2)C(C)C)cc1` (stereo not drawn) [compound 1156], the “Grade of Effect” value with Pyricularia oryzae [1] is reported as “A (From 80% to 100%)”; in the test on Pyricularia oryzae [2], “A (From 80% to 100%)”; in the test on Pyricularia oryzae [3], “A (100%)”.

Regarding `CC(C)C(CNC(=O)c1ccc(Cl)cc1)NC(=O)OCc1cccs1` (stereo not drawn) [compound 1168], the “Grade of Effect” value with Pyricularia oryzae [1] is on record as “A (From 80% to 100%)”; in the test on Pyricularia oryzae [2], “A (From 80% to 100%)”; in the test on Pyricularia oryzae [3], “A (100%)”.

Turning to `Cc1ccc(C(=O)NCC(NC(=O)OCc2cccs2)C(C)C)cc1` (stereo not drawn) [compound 1171], the entries for the “Grade of Effect” value in the test on Pyricularia oryzae [1], in the test on Pyricularia oryzae [2] and with Pyricularia oryzae [3] were “A (From 80% to 100%)”, “A (From 80% to 100%)” and “A (100%)”, respectively.

On to `CC(C)C(CNC(=O)c1ccc(Cl)cc1)NC(=O)OCC1CC1` (stereo not drawn) [compound 1183], for which the “Grade of Effect” value was “A (From 80% to 100%)” in the test with Pyricularia oryzae [1], “A (From 80% to 100%)” with Pyricularia oryzae [2] and “A (100%)” in the test on Pyricularia oryzae [3].

Regarding `Cc1ccc(C(=O)NCC(NC(=O)OCC2CC2)C(C)C)cc1` (stereo not drawn) [compound 1186], the “Grade of Effect” value is “A (From 80% to 100%)” in the test on Pyricularia oryzae [1], “A (From 80% to 100%)” in the test on Pyricularia oryzae [2] and “A (100%)” with Pyricularia oryzae [3].

Take `CC(C)C(CNC(=O)c1ccc(Cl)cc1)NC(=O)OCC(C)(C)C` (stereo not drawn) [compound 1198]: the “Grade of Effect” value is given as “A (From 80% to 100%)” in the test with Pyricularia oryzae [1], “A (From 80% to 100%)” in the test with Pyricularia oryzae [2] and “A (100%)” with Pyricularia oryzae [3].

As to `Cc1ccc(C(=O)NCC(NC(=O)OCC(C)(C)C)C(C)C)cc1` (stereo not drawn) [compound 1201], the “Grade of Effect” value with Pyricularia oryzae [1] is recorded as “A (From 80% to 100%)”; in the test with Pyricularia oryzae [2], “A (From 80% to 100%)”; in the test with Pyricularia oryzae [3], “A (100%)”.

For `C=C(C)COC(=O)NC(CNC(=O)c1ccc(Cl)cc1)C(C)C` (stereo not drawn) [compound 1213], the “Grade of Effect” value in the test on Pyricularia oryzae [1] is given as “A (From 80% to 100%)”; in the test on Pyricularia oryzae [2] it was “A (From 80% to 100%)”; in the test with Pyricularia oryzae [3] it was “A (100%)”.

Turning to `C=C(C)COC(=O)NC(CNC(=O)c1ccc(C)cc1)C(C)C` (stereo not drawn) [compound 1216], the “Grade of Effect” value in the test with Pyricularia oryzae [1] is “A (From 80% to 100%)”; in the test with Pyricularia oryzae [2], “A (From 80% to 100%)”; in the test on Pyricularia oryzae [3] it was “A (100%)”.

In the case of `CC(C)C(CNC(=O)c1ccc(Cl)cc1)NC(=O)OC(C)C(C)C` (stereo not drawn) [compound 1228], the “Grade of Effect” value is recorded as “A (From 80% to 100%)” in the test with Pyricularia oryzae [1], “A (From 80% to 100%)” in the test on Pyricularia oryzae [2] and “A (100%)” in the test with Pyricularia oryzae [3].

`Cc1ccc(C(=O)NCC(NC(=O)OC(C)C(C)C)C(C)C)cc1` (stereo not drawn) [compound 1231]: the “Grade of Effect” value in the test on Pyricularia oryzae [1] is “A (From 80% to 100%)”; in the test with Pyricularia oryzae [2] it was “A (From 80% to 100%)”; in the test on Pyricularia oryzae [3], “A (100%)”.
